Structures are written as SMILES.

Holding throughout (type): cell-based
In experiment [1] the test system is Candida albicans. The experiment can be described thus: MIC assay against Candida albicans. The settings on record: 1×10^5 CFU/ml, 96-well plates, 37° C. for 16 hours. As for the experimental part: (§1) A single colony of Candida albicans was selected from YPD plate, seeded in YPD liquid medium and then cultured at 30° C. and 100 rpm for 16 hours. The medium was diluted to 1×10^5 CFU/ml. The diluted medium was added to 96-well plates containing different concentrations of methyl cinnamate and essential oil of Zanthoxylum armatum (0.00625% to 1% for methyl cinnamate and 0.025% to 0.5% for essential oil) and cultured at 37° C. for 16 hours.

The subject of experiment [2] is Candida albicans. The experiment can be described thus: MFC assay against Candida albicans. Conditions: 1×10^5 CFU/ml, 96-well plates, 37° C. for 16 hours. As for the experimental part:
as §1

Experiment [3] has as its system biofilm of Candida albicans. Kind of experiment: Inhibition of biofilm of Candida albicans on polystyrene (XTT and crystal violet). The settings on record: concentration ranging from 0.015% to 0.125%; added 4 hours after adhesion, cultured at 37° C. to 48 hours; XTT and CV. As for the experimental part: A single colony of Candida albicans was selected from YPD plate (1% (w/v) yeast extract, 2% (w/v) peptone, 2% (w/v) dextrose and 1.5% (w/v) agar), seeded in YPD liquid medium (1% (w/v) yeast extract, 2% (w/v) peptone and 2% (w/v) dextrose) and then cultured at 30° C. and 100 rpm for 16 hours. The YPD medium was washed out and the amounts of the Candida albicans cells were counted using Hematocyte Counter. The cells were diluted with RPMI 1640 medium (Gibco, Invitroge, Calif., U.S.A.) to 5×10^5 cells/ml. 200 μL of 5×10^5 cells/ml medium were added to 96-well plate and placed at 37° C. for 1 hour so that the cells could adhere to the bottom of the plate. The non-adhered cells were washed out with phosphate buffer. The material of the 96-well plate was polystyrene, which is a common material for medical device such as syringe. Subsequently, RPMI 1640 medium was added to the plate and cultured at 37° C. […] The numbers of cells in the biofilm were determined by a colorimetric assay using XTT [2,3-Bis(2-methoxy-4-nitro-5-sulfo-phenyl)-2H-tetrazolium-5-carboxanilide] (Sigma, Mo., U.S.A.) and their biomass was determined by crystal violet to find out the mature development of biofilm (Ramage G et al., Inhibition of Candida albicans Biofilm Formation by Farnesol, A Quorum-Sensing Molecule. Appl Environ Microbiol 2002, 68: 5459-5463). […]
A general note: Tetrazolium dyes change colour on reduction, which living cells bring about.

For the compound `COC(=O)/C=C/c1ccccc1` [methyl cinnamate], in experiment [1], the MIC was determined as 0.1%. The compound further yielded an MFC in experiment [2] of 0.8%. In addition, the biofilm inhibited in experiment [3] is given as 10 to 60%.

These data come from patent US20100331409A1, “Use of Methyl Cinnamate in the Inhibition of Candida Albicans Biofilms” (Barak Biotechnology Co., Ltd., priority 2009, published 2010).
